Measured values published in publication PMC11035632, “Discovery of gefitinib-1,2,3-triazole derivatives against lung cancer via inducing apoptosis and inhibiting the colony formation” (Scientific Reports, 2024).

Legend:
[1] = tested on: NCI-H1299 cells; assay: CCK-8 assay for cell proliferation and cytotoxicity, NCI-H1299; assay type: cell-based; settings: Homo sapiens, CCK-8, 48 h
Experimental: (§1) Three types of lung cells were seeded into 96-well plate at a density of 5 × 10^3 cells per well at logarithmic growth phase and cultured in 37 °C. […] After that, cell viability was determined according to the instruction of the CCK-8 assay. Next, 10 μL of CCK-8 solution was added to each well of the plate and incubate the plate for 1–4 h in the incubator. The absorbance was measured at 450 nm using a microplate reader (Bio-Tek). The percentage of viable cells was measured using the following formula where three independent experiments were performed: [(A450 sample − A450blank)/(A450 control − A450blank)] × 100%.

[2] = tested on: Kunming mice; assay: Acute oral toxicity test in mice; settings: mouse, in vivo
Excerpt: SPF-grade healthy Kunming mice (weighing 20 ± 2 g) were purchased from Henan Skibbes Bio-technology Co., Ltd (Licence No.: SCXK (Yu) 2020–0005). The mice were provided free access to drinking water and adaptive feeding for 7 days.
Twenty Kunming mice (half male and half female) were randomly allocate into 4 groups: 7a-treated group (male), 7a-treated group (female), control group (male) and control group (female). The control groups were given PBS intragastric administration, while the 7a groups were given the 7a solution (400 mg/kg, respectively), once a day for 2 consecutive days. Body weight and appearance were monitored for a total period of 12 days (from the first day after treating with 7a). The mice were killed by cervical dislocation on the 12th day, and blood samples were collected for the biochemistry test. Then, we measured liver and kidney function indicators such as alanine aminotransferase (ALT), aspartate aminotransferase (AST), serum creatinine (CRE) and blood urea nitrogen (BUN) (Nanjing Jiancheng Bioengineering Institute, China). The organs (brain, heart, liver, spleen, lungs, kidneys stomach) were harvested, and fixed in 10% formaldehyde and paraffin-embedded for histological examination. Finally, these sections were stained with haematoxylin and eosin for light microscopic examination.

[3] = tested on: H1299 cells; assay: Colony formation assay; assay type: cell-based, human; settings: 7 days
Excerpt: The colony formation assay is an important method for evaluating the ability of adherent cells to proliferate and form colonies on a plate, and it is widely used to assess cell proliferation. We also employed the colony formation assay to further confirm that compounds 7a and 7j can inhibit the proliferation of lung cancer cells, as shown in Fig. 5. After treating lung cancer cells with low, medium, and high concentrations (1, 2, 4 μmol/L) of compounds for 7 days, the number of cell colonies was counted to analyze the proliferation inhibition rate.
H1299 cells were seeded in six-well plates at a density of 500 cells per well and treated with 7a or 7j (1, 2 and 4 μmol/L) for 7 days. Then, cells were per-fixed with 4% paraformaldehyde for 30 min, stained with 0.1% Crystal violet for 15 min, and then washed with pure water. Taking a picture after the plates were air-dry. The clone formations number was counted with Image J.

[4] = tested on: H1299 cells; assay: Flow cytometry detection of apoptosis (Annexin V-EGFP/PI); assay type: cell-based, human; settings: 48 h
Experimental: H1299 cells were treated with different concentrations of 7a and 7j for 48 h. The cells were stained with Annexin-V and PI, and the proportion of apoptotic cells was detected using flow cytometry.
H1299 cells were seeded in a 6-well plate at a density of 1 × 10^5 cells/well and incubated for 24 h. On the following day, the medium was replaced with fresh medium containing 7a or 7j (2, 4 and 8 μmol/L) and cells were incubated for an additional 48 h. Cell apoptosis was detected using Annexin V-EGFP/PI apoptosis detection Kit by flow cytometry. Subsequently, 5 µl of […] Annexin V and 10 µl of PI was added to the cell suspension, gently vortexed, and incubated at room temperature in the dark for 20 min, then single-cell suspension was prepared followed by flow cytometry (BD Accuri™ C6 Plus).

[5] = tested on: NCI-H1437 cells; assay: CCK-8 assay for cell proliferation and cytotoxicity, NCI-H1437; assay type: cell-based; settings: Homo sapiens, CCK-8, 48 h, read-out: IC50 1437
Experimental: as §1

[6] = tested on: H1299 cells; assay: Transwell migration assay; assay type: cell-based, human; settings: H1299, 2, 4 and 8 μmol/L, 24 h, vs normal control, p < 0.01
Experimental: Transwell chamber migration assay is another important method to assess cell migration ability. Tumor cells are seeded in the chamber, and the number of tumor cells that pass through the membrane is counted to evaluate the migration ability of tumor cells.
Transwell assay was used to determine the migration ability of H1299 cells. Cells were starved in serum-free RPMI 1640 medium for 24 h, then detached and resuspended in serum-free RPMI 1640 medium. 5 × 10^5 cells/mL were inoculated into the upper chamber of a 24-well Transwell plate (Corning Inc., United States), with a volume of 100 µl per well. Then, 100 µL serum-free medium containing 7a or 7j (2, 4 and 8 μmol/L) was added to the upper chamber and the lower chamber was filled with 700 µL medium containing 20% FBS. After incubation for 24 h, H1299 cells on the upper membrane of the transwell were wiped off. The migrated cells were treated with 4% paraformaldehyde for 20 min, stained with 0.1% crystal violet for 20 min and washed three times with PBS. The number of H1299 cells that migrated to the underside of the membrane was counted under the inverted fluorescence microscope. Three randomly selected areas from each transwell were photographed and calculated using Image J.

[7] = tested on: A549 cells; assay: CCK-8 assay for cell proliferation and cytotoxicity, A549; assay type: cell-based; settings: Homo sapiens, CCK-8, 48 h
Experimental: A549 cells were cultured in a humidified incubator at 37 °C with 5% CO2 in Ham’s F-12 K (PM150910, Procell) supplemented with 10% FBS and 1% Penicillin Streptomycin.
as §1

[8] = tested on: H1299 cells; assay: DAPI staining for cell apoptosis; assay type: cell-based, human; settings: H1299, 2, 4 and 8 μmol/L, 48 h
Experimental: In order to further verify the apoptotic activity induced by 7a and 7j in lung cancer cells, H1299 cells were treated with different concentrations of compounds 7a and 7j for 48 h, followed by DAPI staining. […] As the drug concentration increased, nuclear staining intensified, and even nuclear condensation and fragmentation phenomena were observed.
H1299 (1.5 × 10^4 ~ 2 × 10^4 /well) cells were seeded in 24-well plates for 24 h, and then treated with 7a or 7j at the concentrations of 2,4 and 8 μmol/L for 48 h., the cells were fixed for 30 min at room temperature in 4% paraformaldehyde and washed 3 times in PBS. Finally, every well was stained with DAPI (10 µg/mL, C0065, Solarbio) at room temperature for 30 min, and washed at least three times in PBS. The fluorescence microscope was used to observe the morphological changes of cell nuclei.

[9] = tested on: L02 cells; assay: Cytotoxicity / survival rate in normal hepatocytes L02; assay type: cell-based; settings: for Survival rate %, 48 h: L02 cells

Structure (SMILES): COc1cc2ncnc(Nc3cccc(-c4cn(Cc5cc(F)ccc5Br)nn4)c3)c2cc1OCCCN1CCOCC1 [Compound 7a]
- IC50 [1]: 3.94 ± 0.17 µM
- acute toxicity in mice [2]: low toxicity
- formation of H1299 cell colonies ([3]; 1 μmol/L): markedly inhibit
- colony formation ([3]; H1299, 4 μmol/L): almost completely suppressed
- total apoptotic cell proportion ([4]; H1299, 2 μmol/L): 19.03 ± 2.10%
- total apoptotic cell proportion ([4]; H1299, 4 μmol/L): 28.73 ± 1.12%
- total apoptotic cell proportion ([4]; H1299, 8 μmol/L): 50.1 ± 2.91%
- IC50 [5]: 1.83 ± 0.13 µM
- number of cells passing through the membrane to the lower surface of the chamber [6]: significantly decreased
- IC50 [7]: 3.16 ± 0.11 µM
- apoptotic morphology by DAPI staining [8]: exhibited typical apoptotic features
- IC50 ([9]; Homo sapiens, normal hepatocytes L02): 18.9 ± 1.03 µM
- Survival rate %, 48 h ([9]; 2 μM): 95.37 ± 2.98%
- Survival rate %, 48 h ([9]; 4 μM): 71.97 ± 2.33%
- Survival rate %, 48 h ([9]; 8 μM): 66.89 ± 1.52%
- Survival rate %, 48 h ([9]; 16 μM): 63.25 ± 1.25%
- Survival rate %, 48 h ([9]; 32 μM): 32.43 ± 0.95%
